Laboratory results published in PMC12344774, “Ferrocenyl Quinoline-Benzimidazole Hybrids: A Multistage Strategy to Combat Drug-Resistant Malaria” (Inorganic Chemistry, 2025).
Several values for one entry are separate records, joined by “and”; a condition that tells them apart may be missing. Equal entries are not always repeated.

Experiments:
PfK1 = assay: microbe, parasite or virus in culture; type: cell-based, Plasmodium falciparum; settings: MDR K1, ABS, pLDH, 48 h incubation; read-out: PfK1 IC50 ± SEM
Source text: (§1) This side chain is also present in the well-known antiplasmodial agent, FQ.
(§2) Test samples were screened in technical duplicate or triplicate, for three or four biological replicates, for their in vitro blood stage antiplasmodial activity against both the drug-sensitive (NF54) and multidrug-resistant (K1) strains of . Continuous in vitro cultures of asexual erythrocyte stages of were maintained using a modified method of Trager and Jensen. A quantitative assessment of the in vitro antiplasmodial activity was determined via the parasite lactate dehydrogenase (pLDH) assay, using a modified method described by Makler and Hinrichs.
(§3) The test samples were prepared to a 20 mg/mL stock solution in 100% DMSO. Stock solutions were stored at −20 °C. Further dilutions were prepared in complete medium on the day of the experiment. […] Chloroquine diphosphate (CQDP) was used as the reference drug in all experiments. Test samples were tested at a starting concentration of either 100 μg/mL, 50 μg/mL, 10 μg/mL, or 1 μg/mL, which was then serially diluted 2-fold, in complete medium, to give 10 concentrations. The same dilution technique was used for all samples. […] The IC50 values were obtained from full dose–response curves, using a nonlinear dose–response curve fitting analysis, via GraphPad Prism v.5 software.

[1] = Hydroxyl radical (ROS) generation with H2O2, DCFH2 fluorescent probe; settings: 200 μM in 1:4 DMSO/PBS, H2O2 and H2DCF added, 30 min
Source text: Fluorogenic redox-sensitive probes are often employed to measure the presence of ROS, due to their low cost, ease of use, and nontoxicity, allowing for spectrofluorimetric measurements. 2′,7′-Dichlorodihydrofluorescein diacetate (DCFH2-DA) is the most widely used fluorogenic probe. Cleavage of the acetate groups, through alkaline hydrolysis, generates 2′,7′-dichlorodihydrofluorescein (DCFH2), which in the presence of oxidants, yields the highly fluorescent 2′,7′-dichlorofluorescein (DCF, λem = 523 nm). The DCFH2 probe reacts with an array of oxidants, making it an ideal indicator of general oxidative stress. […] The presence of these radicals was confirmed by monitoring the fluorescence over time (Figure ). […].
Stock solutions of DCFH2-DA were prepared to 1 mM in 100% DMSO and stored at −20 °C in the dark until use. The deacetylation of DCFH2-DA involved adding 2 μL of a 0.5 M NaOH solution to 200 μL of the 1 mM DCFH2-DA stock solution. The solution was mixed for 30 min, in the dark, at room temperature and then quenched with 800 μL of PBS buffer to obtain a 200 μM H2DCF 1:4 DMSO/PBS solution mixture.
[…]. The fluorometer was blanked using a 1:4 DMSO/PBS solution mixture. To identify hydroxyl radical production, 2 μL of a 0.5% H2O2 solution was added to 900 μL of the 200 μM complex solution in a cuvette at 25 °C. 100 μL of the prepared H2DCF solution (200 μM) was quickly added, and the readings recorded at 530 nm (emission wavelength), at 2 min intervals, over 30 min.

β-hematin formation = assay: NP-40 detergent-mediated β-hematin formation inhibition assay (cell-free); type: biochemical; settings: NP-40, pH 4.8, 5 h, 37 °C, read-out: β-hematin formation inhibition IC50 ± SEM
Source text: The ability of a compound to inhibit Hz formation can be predicted using the biomimetic cell-free NP40 detergent-mediated β-hematin formation inhibition assay. , This assay mimics the conditions in the acidic DV of the parasite and relies on the binding of pyridine to uncrystallized free heme to detect the inhibition of β-hematin formation using UV–vis spectroscopy (with absorbance measured at 405 nm). , Consequently, the ability of the ferrocenyl quinoline-benzimidazole hybrids (C1–C5) to inhibit β-hematin (synthetic Hz) formation was investigated as a potential mechanism of antiplasmodial action.
The β-hematin formation inhibition assay was modified from the method reported by Sandlin et al. , Stock solutions of the respective test compounds were prepared to 10 mM, in 100% DMSO, with the exception of CQ (used in the salt form, CQDP), which was prepared in Milli-Q water. […] NP-40 is a detergent used to mediate the formation of β-hematin. The solution in column 12 was then serially diluted 2-fold, through to column 2, to give a total of 11 concentrations. Column 1 contained 0 μM of the test compound and thus served as a blank. […] A 178.8 μL aliquot of this hematin suspension was added to 20.0 mL of a 2 M acetate buffer (pH = 4.8) and 100 μL of this solution added to each well. The plates were then covered and incubated for 5 h, at 37 °C. The assay was analyzed using the pyridine-ferrochrome method developed by Ncokazi and Egan. A solution containing water/acetone/2 M HEPES buffer (pH 7.4)/pyridine, in a v/v ratio of 2/2/1/5, was prepared and 32 μL was added to all wells, followed by 60 μL of acetone. The absorbance values were then measured at 405 nm, the results plotted using GraphPad Prism (v5), and the IC50 values obtained using a sigmoidal dose–response curve fitting analysis.

PfNF54 = assay: In vitro ABS antiplasmodial activity, pLDH assay, drug-sensitive NF54; type: cell-based, Plasmodium falciparum; settings: drug-sensitive NF54, ABS, pLDH, 48 h incubation; read-out: PfNF54 IC50 ± SEM
Source text: as §1, §2, §3

[2] = system: Immature gametocytes (>90% stage II/III); assay: microbe, parasite or virus in culture; type: cell-based, Plasmodium falciparum; settings: 48 h drug pressure; for % Inhibition, immature gametocytes: maximum inhibition at 10 μM
Protocol: (§4) Compounds are diluted 3-fold in at least a 9-point serial dilution series starting at 20 μM, with a nonlethal DMSO concentration of <0.1% maintained. Luciferase activity was determined in 30 μL parasite lysates by adding 30 μL luciferin substrate (Promega Luciferase Assay System) at room temperature and detection of resultant bioluminescence at an integration constant of 10 s with the GloMax-Multi + Detection System with Instinct Software. Methylene blue (5 μM) and the clinical antimalarial candidate MMV390048 (5 μM) were used as controls. IC50 values were determined in GraphPad Prism using a nonlinear regression fit with variable slope (4-parameter) on the dose–response data.
(§5) Assay quality parameters are evaluated for each assay, including Z′-factors (data quality compared to reproducibility using signal, noise, and background parameters; accepted metric >0.6), regression (accepted r 2 > 0.9); >80% viable parasites (top plateau); <20% killed parasites (bottom plateau), hill slope ∼1.

[3] = system: Mature gametocytes (>95% stage V); assay: microbe, parasite or virus in culture; type: cell-based, Plasmodium falciparum; settings: 48 h drug pressure; for % Inhibition, mature gametocytes: maximum inhibition at 10 μM
Protocol: as §4, §5

In the case of `Cc1ccc2c(c1)nc(-[c-]1cccc1)n2CCCNc1ccnc2cc(Cl)ccc12.[Fe+2].c1cc[cH-]c1` [Complex C1, 7-chloro-N-(3-(5-(methyl)-2-ferrocenyl-1H-benzo[d]imidazole-1-yl)propyl)quinolin-4-amine], the IC50 (PfK1) is reported as 6.29 ± 0.51 µM, the “Hydroxyl radical generation (fluorescence intensity over time)” value [1] is reported as “no changes in the fluorescence intensity” and the IC50 (β-hematin formation) is reported as 7.26 µM. For the same compound, the IC50 (PfNF54) was 9.91 ± 0.71 µM, the “% Inhibition, immature gametocytes” value [2] was 3% and the “% Inhibition, mature gametocytes” value [3] was 7%.
In the case of `Cc1ccc2c(c1)nc(-[c-]1cccc1CN(C)C)n2CCCNc1ccnc2cc(Cl)ccc12.[Fe+2].c1cc[cH-]c1` (centres unmarked) [Complex C3, 7-Chloro-N-(3-(5-methyl-2-(2-N,N-dimethylaminomethyl)ferrocenyl-1H-benzo[d]-imidazole-1-yl)propyl) Quinoline-4-amine], the IC50 (PfK1) is reported as 0.11 µM and 0.113 µM, the “Hydroxyl radical generation (fluorescence intensity over time)” value [1] is reported as “produce hydroxyl radicals” and the IC50 (β-hematin formation) is reported as 5.42 µM. The IC50 (PfNF54) was 0.025 ± 0.001 µM, the IC50 ([2]; read-out: IC50 ± S.E., immature gametocytes) was 2.35 µM and the “% Inhibition, immature gametocytes” value [2] was 88%. The IC50 ([3]; read-out: IC50 ± S.E., mature gametocytes) was 7.27 µM and the “% Inhibition, mature gametocytes” value [3] was 99%.
